Assays:
HepG2 = assay: Cellular internalization of gemcitabine-bound chemically optimized aptamers; assay type: cell-based; settings: analysis in HepG2 and A431 cells, FIGS. 20 to 22
Protocol: [The source words this procedure for another cell line and reports this cell line under the same test.] 5 aptamer libraries prepared by truncating the 12-10 aptamer at various lengths [12-12 (35-mer), 12-11 (29-mer), 12-13 (24-mer), 12-14 (23-mer), and 12-15 (18-mer)] were subjected to cellular internalization analysis. In detail, a 6-well plate was prepared, and a round cover glass was placed in the 6-well plate. Huh-7 cells were cultured in the 6-well plate according to the method of Example 1-3. 5 μM of the aptamer stock was mixed with 5×SB18 buffer to prepare the aptamer at a concentration of 4 μM, and heated at 95° C. for 5 min, and then cooled at room temperature for 15 min or more. The next day, the medium was removed from the cultured cells, and a serum-free medium was added thereto, and cultured under conditions of 37° C. and 5% CO2 for 1 hr. The serum-free medium was removed, and then the cells were washed with 2 mL of 1×PBS. KRPH buffer was added, and cultured under conditions of 37° C. and 5% CO2 for 1 hr. 4 μM aptamer was diluted to 25 nM, and then cultured under conditions of 37° C. and 5% CO2 for 1 hr or 4 hr. Washing was repeated three times with 2 mL of 1×PBS. Washing was performed in a shaker at room temperature for 10 min while blocking the light. Thereafter, the cells were fixed by treatment with 4% paraformaldehyde at 4° C. for 10 min. Washing was repeated three times with 2 mL of 1×PBS. […]

[1] = test system: GPC3-expressing hepatoma cells; assay: Cell-killing effect (CCK-8) of gemcitabine-bound combi aptamers; assay type: cell-based; settings: FIG. 23 and FIG. 24
Protocol: In detail, Huh-7 cells (ATCC, Rockville, MD, USA) were seeded in a 96-well plate at a density of 1×10^4/mL, and cultured using a DMEM (Gibco, Grand Island, NY, USA) medium containing 10% FBS (Gibco, Grand Island, NY, USA) and 1% antibiotics (penicillin/streptomycin) under conditions of 5% CO2 and 37° C. Next day, the aptamer stock (100 μM) was mixed with 5×SB18 buffer to prepare the stock at a concentration of 80 μM, and heated at 95° C. for 5 min, and then cooled at room temperature for 15 min or more. The medium was removed from the cultured cells, and 100 μL of a serum-free medium was added thereto, and cultured under conditions of 37° C. and 5% CO2 for 1 hr. The serum-free medium was removed, and then the cells were washed with 100 μL of 1×PBS. 100 μL of KRPH buffer was added, and cultured under conditions of 37° C. and 5% CO2 for 1 hr. The aptamer was diluted with KRPH buffer to 2-fold of the desired concentration, and added to a 96-well plate at 1× concentration, and cultured under conditions of 37° C. and 5% CO2 for 4 hr. After treatment with the aptamer, the KRPH buffer was removed, and then 100 μL of culture medium was added and cultured under conditions of 37° C. and 5% CO2 for […]. 6 days later, 10 μL of a kit solution of CCK-8 (Cell Counting Kit-8) was added to each well, and then cultured under conditions of 37° C. and 5% CO2 for 3 hr. Cell death levels were examined at […] using a microplate reader.

Q: With “Combi 5 G(3) (DNA GNGAANGCGNNGAANNANWYSSSNNCAGNCANCAC; gemcitabines, 2'-OMe, 2'-F, BzdU, 3' idT; Combi 5 G(3); (1)..(1) G is 2-O-Methoxy-DNA.; (2)..(2) n is BzdU.; (3)..(3) G is 2-O-Methoxy-DNA.; (4)..(4) A is 2-Fluorine-DNA.; (5)..(5) A is 2-Fluorine-DNA.; (6)..(6) n is BzdU.; (10)..(10) n is BzdU.; (11)..(11) n is BzdU.; (12)..(12) G is 2-Fluorine-DNA.; (13)..(13) A is 2-Fluorine-DNA.; (14)..(14) A is 2-O-Methoxy-DNA.; (15)..(15) n is BzdU.; (16)..(16) n is BzdU.; (17)..(17) A is 2-O-Methox)” as the substance, how does the cellular internalization (HepG2) read?
A: The cellular internalization was “excellent cellular internalization”.

Q: What about the “concentration from which a cell-killing effect is shown” value [1] of the same substance?
A: Its value is 100 nM.

Source: patent US12668803B2, “Glypican-3-specific modified aptamer and use thereof” (APTAMER SCIENCES INC., priority 2019, dated 2026)
